Data: patent US20040019060A1, “Sigma receptor ligands and their medical uses” (priority 2000, published 2004)
Structures can show the parent of a compound that is named as a salt.

How the values were obtained:
[1] = tested on: human microvascular endothelial cells (HMEC-1); assay: Proliferation assay in HMEC-1 (phosphatase activity); format: cell-based; conditions: 168 h, read-out: IC50 (dose required to inhibit proliferation to 50% of control), HMEC-1, FIG. 2a, assay on day 7
Experimental: HMEC-1 (immortalised human microvascular endothelial cells) obtained from Dr Colin Porter, Chester Beatty Laboratories were grown in TCS Biologicals Microvascular Endothelial Cell Basal Medium (ZHM-2946) with supplement (ZHS-8947). This contains heparin, hydrocortisone, human EGF, human bFGF, dibutyryl cyclic AMP (concentrations not disclosed by the Company) with added 5% FCS, pH 7.4.
The cells were seeded at 2×10^4 ml in 96 well microtitre plates on day 0, and sigma ligands were added in fresh medium on day 1. […] PCS at the concentrations indicated was present throughout the assay. Each concentration of drug was assayed in triplicate, and the vehicle concentration was kept constant.
Viable cells present at the end of the assay were estimated by determining phosphatase activity as follows: 100Xl of paranitrophenylphosphate (Sigma) at 3 mg/ml in phosphate buffer pH 5.5 containing 0.1% Triton X100 was added to wells and incubated for 2hr at 37° C. The reaction was stopped with 1N NaOH. Released paranitrophenol, indicative of attached cell number, was measured by reading the absorbance at 405 nm in a Titertek multiscan. “Background” counts (which were very low) were subtracted, and the survival in drug treated wells compared with that of control wells. The 100% value is the mean absorbance of control wells treated with vehicle alone; the 0% value is that of wells containing medium only.

[2] = Pharmacokinetics in mice (LCMS of plasma, liver, spleen); format: in vivo, Balb/C mice
Experimental: Prior to undertaking any in vivo experiments with Rimcazole to study effects on tumour growth and angiogenesis, it was necessary to determine its pharmacokinetics in order that doses in the active range could be administered. Rimcazole (dissolved in water) was administered at 40 mg/kg i.p to Balb/C mice. Heparinised blood samples were taken at 5, 15 and 30 minutes, 1,2,4,6, and 24 hours and plasma separated. Tissue samples were also taken at some time points for analysis. Rimcazole samples were initially analysed by LCMS.
Column: Supelco 50×4.6 mm ABZ+ with 5 μ packing.
Mobile phase: A=HPLC grade methanol, B=0.1% formic acid in water.
Full scan mode: mass range analysed 50 to 850 amu.
MSMS mode: filtered ions were 322 (Rimcazole), 338 (Rimcazole+oxygen), and 514 (glucuronide of 338 metabolite).

sponge angiogenesis = assay: Mouse sponge angiogenesis model (triple radiotracer); format: in vivo, Balb/C mice; conditions: 30 mg/kg i.p. daily, all time points, FIG. 7a
Excerpt: In order to study neoangiogenesis in the absence of tumours, sterile polyether sponges were implanted into animals. This technique, developed in Cambridge, has been widely used to study angiogenesis. We have employed a triple radiotracer technique to study different aspects of the angiogenic process.
Balb/C mice were implanted bilaterally s.c. with sterile 7 mm diameter polyether sponges on days -5, -12 and -16 days prior to termination (5-6 mice per group). The mice were given Lugol's solution (KI) for 3 days prior to injection of radionuclides to prevent uptake of iodine in the thyroid. 24 hours before termination, the mice were injected i.v with […] [131-I] 5′-iodo-2′-deoxyuridine (IudR). One hour prior to termination the mice were injected with 2 XCi 2-deoxy-D-(1-[H3]glucose (DG) and 2 minutes prior to termination 2XCi [Tc-99m]-exametazine (HMPAO).
The IudR uptake reflects cell proliferation (primarily endothelial cells and also a small proportion of the inflammatory cells which provide the angiogenic growth factors); the DG measures cellular glucose metabolism, and the HMPAO gives a measure of blood flow. All can be taken as separate indices of the degree of vascularisation of the sponge implants. Mice were treated i.p. daily with Rimcazole (30 mg/kg) from the day of sponge implantation, or vehicle alone.

[3] = tested on: MDA MB 435 human breast carcinoma xenografts; assay: MDA MB 435 breast carcinoma xenograft growth and angiogenesis; format: in vivo, NCr athymic mice; conditions: for Tumour growth (increase in volume relative to start of treatment): FIG. 8a
Experimental: MDA MB 435 human breast carcinoma cells (as a model of hormone-insensitive disease) were grown in tissue culture to 70% confluence, harvested with trypsin:EDTA, washed, resuspended in DMEM and injected bilaterally into the inguinal fat pads of 6 week old female NCr athymic mice (orthotopic site) at 1.5×10^6 cells in 50 μl. The mice were housed in filter boxes in […] laminar flow cabinets and fed sterilized food and water. All procedures were carried out in class 1 laminar flow hoods using sterile equipment and reagents. On day 7, the tumours were measured with vernier calipers across two perpendicular diameters, and the mice were randomised into experimental groups and treated as follows: 1. […] 2. […] 3. Rimcazole 15 mg/kg/day (as above). […] The preparations were made up freshly each day, and the animals dosed intraperitoneally for 24 days. Animals were observed daily and weighed regularly to check that there were no adverse effects of treatment. […] Differences in growth were compared using the Mann-Whitney U test. At termination of the experiment the mice were killed and tumours excised and weighed. Blood, liver and tumour samples were snap frozen for analysis of drug levels by LCMS/MS. Tumour samples were also cryopreserved, and sections cut and stained with MECA-32 (Developmental Studies Hybridoma Unit; rat anti mouse endothelium) visualised with HRP conjugated goat-anti rat (Star 72, Serotec) to estimate blood vessel density.

[4] = tested on: Human mammary carcinoma (MDA MB 468) cells; assay: MTS cell viability/proliferation assay, mammary carcinoma cells; format: cell-based
Experimental: Human mammary carcinoma (MDA MB 468) cells were obtained from TCC, Manassas, Va., USA; catalogue number HTB-132; cells were grown in accordance with the manufacturer's instructions.
(§1) Cell density was checked microscopically at time zero.

[5] = tested on: human adult dermal fibroblasts; assay: MTS cell viability/proliferation assay, dermal fibroblasts; format: cell-based
Excerpt: (Tissue in all cases was from healthy donors). […] Primary cell types included:
as §1

sigma-1 sites = sigma-1 sites (Homo sapiens, UniProt Q99720); conditions: Abou-Gharbia et al 1993; cited from earlier work
Sequence of sigma-1 sites (Q99720 whole entry): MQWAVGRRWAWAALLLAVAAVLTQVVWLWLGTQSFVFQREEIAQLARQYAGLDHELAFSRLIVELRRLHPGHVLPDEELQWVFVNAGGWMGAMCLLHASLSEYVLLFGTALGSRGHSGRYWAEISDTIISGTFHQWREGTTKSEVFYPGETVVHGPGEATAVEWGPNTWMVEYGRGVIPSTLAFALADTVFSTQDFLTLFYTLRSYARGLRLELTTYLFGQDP

Q: With C[C@@H]1CN(CCCn2c3ccccc3c3ccccc32)C[C@H](C)N1 [Rimcazole, cis-9-[3,5-dimethyl-1-piperazinyl) propyl]carbazole dihydrochloride] as the compound, how does the IC50 [1] read?
A: < 5 µM

Q: And the “Tissue levels relative to plasma” value ([2]; Rimcazole 40 mg/kg i.p., mice, spleen and liver)?
A: higher in spleen and liver than in plasma

Q: What about the “Plasma levels relative to IC50” value ([2]; once daily dosing at 40 mg/kg) of the same compound?
A: plasma levels above the IC50 for a significant period

Q: What about the “Cell proliferation (IUdR), cellular metabolism (DG) and blood flow (HMPAO) in sponge implants” value (sponge angiogenesis) of the same compound?
A: reduction

Q: And the “Weights of excised tumours” value ([3]; 15 mg/kg dose, FIG. 8b)?
A: did not achieve statistical significance

Q: And the “Tumour growth (increase in volume relative to start of treatment)” value ([3]; 15 mg/kg/day i.p. for 24 days, p=0.0228 Mann-Whitney U test)?
A: significant tumour growth retardation

Q: What about the “Tumour growth (increase in volume relative to start of treatment)” value ([3]; 30 mg/kg/day i.p. for 24 days, p=0.0436 Mann-Whitney U test) of the same compound?
A: significant tumour growth retardation

Q: And the “Weights of excised tumours” value ([3]; 30 mg/kg/day, p=0.0239, FIG. 8b)?
A: significantly less

Q: What about the “Health and body weight gain of mice during therapy” value ([3]; 15 and 30 mg/kg/day for 24 days, data not shown) of the same compound?
A: remained healthy throughout therapy and gained weight at the same rate as controls

Q: And the “Vascular density in excised tumours” value ([3]; both doses (15 and 30 mg/kg/day), FIG. 8c)?
A: significantly inhibited

Q: And the “Effect of sublethal concentration (MTS)” value ([4]; 5 micromolar, FIG. 10 bottom panel)?
A: cytostasis

Q: What about the “Cell killing (MTS viability)” value ([4]; 10 micromolar, low passage cells, FIG. 9) of the same compound?
A: no surviving cells remained after 24 hours

Q: What about the “Survival and proliferation (MTS)” value ([5]; 10 micromolar, up to 48 hours, FIG. 9) of the same compound?
A: continued to proliferate vigorously

Q: What about the “Tolerance of fibroblasts over a range of concentrations (MTS)” value ([5]; 100 micromolar to 1 nanomolar, FIG. 10) of the same compound?
A: remarkably resistant

Q: What about the “selectivity for sigma-1 compared to sigma-2 sites” value (sigma-1 sites) of the same compound?
A: approximately 5 fold
